{"source": "patent US12545892B2", "about": "“Application of TGF-B inhibitor in inducing neural stem cells and organoid formation” (IREGENE THERAPEUTICS, CO., LTD., priority 2020, dated 2026)", "key": {"[1]": {"test_system": "Human pluripotent stem cells", "assay": "CyQuant assay of medium components (cell viability in long-term culture)", "type": "cell-based", "conditions": "different concentrations, FIG. 2b-2c", "description": "(§1) The Cyquant assay was used to perform the quantitative detection of cell viability, thus investigating the effect of LY2157299 on the physiological state of the cells during long-term culture of the cells; Among them, the LSB method was used as the control group. 96-well light-tight cell culture plates were coated; after the coating was complete, cells were seeded separately at 5×10^4 cell number per well and three sets of parallel replicates were set (the average of three sets was calculated as data) to repeat the procedure of example 2.1. Wherein, the culture procedures described previously were incubated at 37° C. with 5% CO2. Samples were taken on days 1, 5, 10, 15 and 20 for cell viability assay using CyQuant Kit (Invitrogen, cat. No: X12223). The aforementioned assay was operated according to the instructions with a Spectramax i3 Multi-Mode Microplate Reader (VWR, model number: ID3-STD) for data reading."}, "[2]": {"test_system": "Human pluripotent stem cells", "assay": "Cyquant assay of cell viability during neural induction", "type": "cell-based", "conditions": "samples on days 1, 5, 10, 15 and 20; control LSB method; FIG. 1c", "description": "as §1"}, "[3]": {"test_system": "Human pluripotent stem cells", "assay": "Chemical induction of neural stem cells from pluripotent stem cells (neural rosette formation, cell morphology)", "type": "cell-based", "source_text": "Human pluripotent stem cells include embryonic pluripotent stem cells, such as the H9 cell line and human induced pluripotent stem cells. Wherein, the human induced pluripotent stem cells used in the present invention are obtained from the reprogramming of CD34^+ cells, which refers to “reprogramming culture medium and reprogramming induced pluripotent stem cell culture method” (the method in the patent ZL201910050800.7).\nHuman pluripotent stem cells are used to coat T25 cell culture flasks with Matrigel ([…] Technologies), and then placed in a 37° C. incubator for more than one hour after plating. Follow 1×10^6 Cells were seeded in T25 flasks for expansion and passage.\nFor neural induction, use 50 μg/mL poly-lysine (SIGMA, Cat. No.: P6407) to coat a 6-well culture plate, and incubate at 37° C. for more than 3 hours after plating; then use 5 μg/mL Laminin (SIGMA ALDRICH, Cat. No.: 12020) for further coat, and then place in a 37° C. incubator to incubate for more than 3 hours. When pluripotent stem cells reached 70% coverage, they were digested with EDTA at 37° C. for 5 min, and DMEM was used to stop cell digestion. Cells are washed and centrifuged at 2×10^5 the proportions of each flask and are re-seeded in T25 plates. Neural induction is performed using the medium of the present invention in combination with the neural inducing compound, and the medium is changed every day until the neural stem cell rosette is formed. […] Therefore, the single-molecule inducing method provided by this method can induce pluripotent stem cells to form neural rosette structures more efficiently and uniformly.\n(§2) From the above results, it is known that the differentiation is not complete under the low concentration condition, and many different types of cells can be seen. However, neural stem cells obtained in high concentration condition are easily differentiated and cell stress appears."}, "[4]": {"test_system": "neural stem cells obtained by the LY inducing method", "assay": "Directed differentiation of induced neural stem cells into neurons (immunofluorescence)", "type": "cell-based, human", "description": "The neural stem cells obtained by the LY inducing method in Example 2 were subjected to directed differentiation in NouvNeu001 basal medium. For neuronal differentiation, use 50 μg/mL polylysine (SIGMA ALDRICH, Cat. No.: P6407) to coat a 6-well culture plate, and place the plate in a 37° C. incubator and incubate for more than 3 hours until cells are seeded.\nThe neural stem cells obtained in example 2 were seeded at a density of 1×10^5 the ratio per flask was inoculated in T25 flasks, and 3 μM CHIR99021 (Selleck, Cat. No.: S2924), 10 μM SU5402 (Tocris, Cat. No.: 3300/1), 10 μM DAPT (Selleck, Cat. No.: S2215) were added to NouvNeu001 basal medium. Fresh medium was replaced every 3 days until day 21. The above cultures were incubated at 37° C. with 5% CO2.\nThe neural stem cells obtained in example 2 were seeded at a density of 1×10^5 the ratio per flask was inoculated in T25 flasks, and 1 μM Purmorphamine (Sellek, Cat. No.: S3042) and 1 ng/mL TGF-β3 (Novoprotein, Cat. No.: CJ44) were added to NouvNeu001 basal medium to culture neural stem cells. Fresh medium was replaced every 3 days until day 30. The above cultures were incubated at 37° C. with 5% CO2.\nThe neural stem cells obtained in example 2 were seeded at a density of 1×10^5 the ratio per flask was inoculated in T25 flasks, and 0.5 μM retinyl acetate (SIGMA ALDRICH, Cat. No.: R7782) was added to NouvNeu001 basal medium. Fresh medium was replaced every 3 days until day 24. The above cultures were incubated at 37° C. with 5% CO2.\nAfter induction and differentiation, the cells were harvested and identified by immunofluorescence staining: cells were fixed with 4% paraformaldehyde at room temperature for 40 minutes, washed twice with DPBS buffer; then permeabilized with 0.1% Triton X-100 for 5 minutes, and buffered with DPBS The cells were then washed twice with DPBS buffer containing 10% horse serum and 0.1% Triton X-100 at 4° C. overnight; the cells were washed with DPBS buffer and then washed with 2% horse serum and 0.1% Triton X-100. […]"}, "[5]": {"test_system": "HLA-DR", "assay": "Flow cytometry detection of HLA-DR antigens of induced neural stem cells", "type": "cell-based, human", "conditions": "FIG. 7", "description": "The HLA-DR antigens of neural stem cells induced by LY2157299 were detected by flow cytometry. HLA-DR is an MHC class II molecule whose expression is critical for the antigen-presenting function of cells and plays a key role in adoptive immune responses. The induced neural stem cells obtained in Example 2 were digested with EDTA, washed with DPBS, centrifuged to remove the supernatant, and 10^6 Cells were resuspended in 100 μL of diluted primary antibody (CD45 PerCP, Abeam, Cat. No. ab157309; HLA-DR FITC, CST, Cat. No. 54126), incubated on ice for 1 hour in the dark, centrifuged to remove supernatant, and cells were resuspended in 500 μL of antibody dilution buffer (CST) and analyzed on a flow cytometer. Samples incubated without primary antibody were used as controls. The results are shown in FIG. 7, FIG. 7a is a negative control, FIG. 7b is the HLA-DR detection result of the neural stem cells obtained by LY2157299 induction."}, "[6]": {"test_system": "Sox2, Pax6, Nestin, CASP3", "assay": "Q-PCR of marker genes during induction from pluripotent stem cells to neural stem cells", "type": "cell-based, human", "conditions": "different concentrations", "description": "Transcriptional changes of different marker genes during induction from pluripotent stem cells to neural stem cells were detected by using Q-PCR. The induced pluripotent stem cells used in this example are neural stem cells derived by LY inducing method and LSB inducing method, respectively. Neural stem cells were prepared as described previously using Rneasy Mini or Micro Kit (QIAGEN) for total RNA extraction, in which […] RNA was used to synthesize cDNA with superscript III First-Strand Synthesis System (Invitrogen).\nAll the above data were analyzed with the delta-Ct method. Each set of trials was tested using three sets of replicates, and variance statistics were performed.\nas §2"}, "[7]": {"test_system": "MHC associated genes CD4, HLA-A, HLA-C, hla-f, and HLA-DPB1", "assay": "Q-PCR detection of MHC genes of induced neural stem cells", "type": "cell-based", "conditions": "compared with human pluripotent stem cells; FIG. 6", "source_text": "The major histocompatibility complex (MHC) genes of neural stem cells induced by LY2157299 was detected by Q-PCR method, and pluripotent stem cells (iPS) were used as control."}, "[8]": {"test_system": "human induced pluripotent stem cells", "assay": "Brain organoid culture from induced pluripotent stem cells (formation, diameter)", "type": "cell-based", "conditions": "12.5 μM in basal medium to day 10, culture to day 120", "description": "Organoid culture was performed with human induced pluripotent stem cells. Organoid inducing medium was formulated as follows: NouvNeu basal medium supplemented with 12.5 μM LY2157299. Induced pluripotent stem cells were digested to single cells by Accutase, seeded in U-bottom-ultra-low attachment 96-well plates at a ratio of 9000 cells/[…] of brain organoid inducing medium per well. 10 μM ROCK inhibitor Y-27632 (Selleck, S1049) was added, and the cells were placed in a 37° C., 5% carbon dioxide cell incubator for 24 hours (Panasonic, model: MCO-18AC). Y-27632-free fresh organoid inducing medium was changed the following day until day 10. Day 10 the organoids were transferred to ultra-low-attachment 6-well plates and the medium was changed to NouvNeu001 basal medium supplemented with 2% B27 cell culture additive. The culture was conducted at 37° C. in a 5% CO2 cell culture incubator on a horizontal rotator at 80 rpm until day 120.\nThe control experiment was carried out according to the published method (Clair B et. al, Nat Methods. 2019, November; 16 (11): 1169-1175). N2B27 was used as the basic medium for organ like culture. […]\nOrganoids were photographed by Leica Dmi8. The brain organoids were photographed and their diameters were measured. […]"}, "[9]": {"assay": "Freezing point osmometer, osmolality of the culture system", "type": "physicochemical", "conditions": "sodium chloride concentration 1 μg/mL; FIG. 2a", "source_text": "A fully automated freezing point osmometer (FM-8P, Shanghai Yida Instruments Co., Ltd.) was used to detect the effects of different concentrations of sodium chloride on the osmolality of the culture system, and the specific operations were enrolled in the product instructions (FM-8P, Shanghai Yida Instruments Co., Ltd.). The test results are detailed in FIG. 2a. The results illustrate a linear increase with the concentration of sodium chloride and the osmotic pressure of the culture system. However, when the concentration reached 1 μg/mL, the osmolality of the culture system already exceeded the cell culture limit of 320 mOsm/kg."}}, "data": [{"compound": "recombinant insulin: component of the basal medium, screened at different concentrations", "values": [{"measurement": "effect of concentration on cell proliferation (CyQuant)", "setting": "[1]", "result": "positively correlated with the rate of cell proliferation"}]}, {"compound": "Cc1cccc(-c2nn3c(c2-c2ccnc4ccc(C(N)=O)cc24)CCC3)n1", "note": "[LY2157299, 4-(2-(6-methylpyridin-2-yl)-5,6-dihydro-4h-pyrrolo[1,2-b]pyrazol-3-yl) quinoline-6-carboxamide]", "values": [{"measurement": "number of neural cells (cell viability, CyQuant)", "setting": "[2]", "result": "induced more number of neural cells compared with LSB method"}, {"measurement": "cell population obtained by chemical induction", "setting": "[3]; 12.5 μM in NouvNeu001 basal medium, FIG. 4d", "result": "resulted in a uniform cell population"}, {"measurement": "cell population obtained by chemical induction", "setting": "[3]; 25 μM in NouvNeu001 basal medium, FIG. 4e", "result": "a mixed population of neural cells was obtained"}, {"measurement": "cell stress during chemical induction", "setting": "[3]; 25 μM, FIG. 4e", "result": "cells showed signs of stress with intracellular vacuoles"}, {"measurement": "cell population obtained by chemical induction", "setting": "[3]; in NouvNeu001 basal medium, FIG. 4c", "result": "a mixed population of cells including neural cells was obtained"}, {"measurement": "nociceptor neuron differentiation of induced neural stem cells, marker expression", "setting": "[4]; CHIR99021, SU5402, DAPT until day 21, FIG. 5a-5c", "result": "express the nociceptor neuron specific marker SCNI11A"}, {"measurement": "dopaminergic neuron differentiation of induced neural stem cells, marker expression", "setting": "[4]; Purmorphamine, TGF-β3 until day 30, FIG. 5d-5f", "result": "can express mature dopaminergic neuron specific marker Pitx3"}, {"measurement": "photoreceptor neuron differentiation of induced neural stem cells, marker expression", "setting": "[4]; retinyl acetate until day 24, FIG. 5g-5i", "result": "can express the photoreceptor neuron specific marker OPSIN"}, {"measurement": "HLA-DR antigen expression of induced neural stem cells (flow cytometry)", "setting": "[5]", "result": "do not express HLA-DR"}, {"measurement": "regulation of Pax6 expression by concentration (Q-PCR)", "setting": "[6]; FIG. 4f", "result": "positively correlated with Pax6 expression"}, {"measurement": "regulation of apoptosis gene CASP3 by concentration (Q-PCR)", "setting": "[6]; FIG. 4g", "result": "positively correlated with apoptosis"}, {"measurement": "expression of MHC associated genes in induced neural stem cells (Q-PCR)", "setting": "[7]", "result": "expressed at extremely low levels"}, {"measurement": "generation of cerebral organoids", "setting": "[8]", "result": "can induce the generation of cerebral organoids"}]}, {"compound": "[Cl-].[Na+]", "note": "[sodium chloride]", "values": [{"measurement": "osmolality of the culture system", "setting": "[9]", "result": "> 320", "unit": "mOsm/kg"}]}]}
